These results are taken from patent US7858611B2, “Neurogenesis by modulating angiotensin” (BrainCells Inc., priority 2006, dated 2010).

Experiment [1] deals with Group I or Group III receptors. As to conditions: at sub-mM concentrations; cited from earlier work.
A further experiment has as its target mGluR2 (Homo sapiens, UniProt Q14416). The conditions noted are these: read-out: IC50 against mGluR2; cited from earlier work.
The target of another experiment is mGluR3 (Homo sapiens, UniProt Q14832). The conditions noted are these: read-out: IC50 against mGluR3; cited from earlier work.
The next experiment has as its system mGlu7 and mGlu8. As to conditions: at higher concentrations (e.g., above 1 μM); cited from earlier work.
Experiment [2] deals with KA, AMPA, and NMDA iGlu receptors. As to conditions: cited from earlier work.
The next experiment deals with human mGlu2 receptors (Homo sapiens, UniProt Q14416). As to conditions: in vitro; low nanomolar range; read-out: EC50 against human mGlu2 receptors; cited from earlier work.
The next experiment concerns the target human mGlu3 receptors (Homo sapiens, UniProt Q14832). The conditions noted are these: in vitro; low nanomolar range; read-out: EC50 against human mGlu3 receptors; cited from earlier work.
Experiment [3] relates to human neural stem cells (hNSCs). Briefly: Neuronal differentiation of human neural stem cells (TUJ-1 antibody staining). It counts as cell-based. As to conditions: for EC50: Homo sapiens, Neural stem cell, read-out: EC50 for neuronal differentiation; for effect on neuronal differentiation: dose response.
Text: (§1) Mitogen-free test media with a positive control for neuronal differentiation was used along with basal media without growth factors as a negative control.
as §1, §1, §1, §1
Human neural stem cells (hNSCs) were isolated and grown in monolayer culture, plated, treated with varying concentrations of benazepril (test compound), and stained with TUJ-1 antibody, as described above. Mitogen-free test media with a positive control for neuronal differentiation was used along with basal media without growth factors as a negative control.
Human neural stem cells (hNSCs) were isolated and grown in monolayer culture, plated, treated with varying concentrations of trandolapril (test compound), and stained with TUJ-1 antibody, as described in above. Mitogen-free test media with a positive control for neuronal differentiation was used along with basal media without growth factors as a negative control.
Human neural stem cells (hNSCs) were isolated and grown in monolayer culture, plated, treated with varying concentrations of candesartan (test compound), and stained with TUJ-1 antibody, as described in above. Mitogen-free test media with a positive control for neuronal differentiation was used along with basal media without growth factors as a negative control.
Human neural stem cells (hNSCs) were isolated and grown in monolayer culture, plated, treated with varying concentrations of telmisartan (test compound), and stained with TUJ-1 antibody, as described in above. Mitogen-free test media with a positive control for neuronal differentiation was used along with basal media without growth factors as a negative control.
Human neural stem cells (hNSCs) were isolated and grown in monolayer culture, plated, treated with varying concentrations of ibudilast and/or captopril (test compounds), and stained with TUJ-1 antibody, as described above. Mitogen-free test media with a positive control for neuronal differentiation was used along with basal media without growth factors as a negative control.
Human neural stem cells (hNSCs) were isolated and grown in monolayer culture, plated, treated with varying concentrations of enoximone and/or captopril (test compounds), and stained with TUJ-1 antibody, as described above. Mitogen-free test media with a positive control for neuronal differentiation was used along with basal media without growth factors as a negative control.
Human neural stem cells (hNSCs) were isolated and grown in monolayer culture, plated, treated with varying concentrations of ibudilast and/or candesartan (test compounds), and stained with TUJ-1 antibody, as described above. Mitogen-free test media with a positive control for neuronal differentiation was used along with basal media without growth factors as a negative control.
Human neural stem cells (hNSCs) were isolated and grown in monolayer culture, plated, treated with varying concentrations of baclofen and/or captopril (test compounds), and stained with TUJ-1 antibody, as described above. Mitogen-free test media with a positive control for neuronal differentiation was used along with basal media without growth factors as a negative control.
Human neural stem cells (hNSCs) were isolated and grown in monolayer culture, plated, treated with varying concentrations of donepezil and/or captopril (test compounds), and stained with TUJ-1 antibody, as described above.

[4] abbreviates: agent alone, percentage of neuronal positive control, basal media values subtracted.
Where [5] appears, read: agent alone, FIG. 6-9, percentage of neuronal positive control, basal media values subtracted.

Where two headings read alike, the source gives them in different places.

mGluR2, sequence (Q14416 19-872): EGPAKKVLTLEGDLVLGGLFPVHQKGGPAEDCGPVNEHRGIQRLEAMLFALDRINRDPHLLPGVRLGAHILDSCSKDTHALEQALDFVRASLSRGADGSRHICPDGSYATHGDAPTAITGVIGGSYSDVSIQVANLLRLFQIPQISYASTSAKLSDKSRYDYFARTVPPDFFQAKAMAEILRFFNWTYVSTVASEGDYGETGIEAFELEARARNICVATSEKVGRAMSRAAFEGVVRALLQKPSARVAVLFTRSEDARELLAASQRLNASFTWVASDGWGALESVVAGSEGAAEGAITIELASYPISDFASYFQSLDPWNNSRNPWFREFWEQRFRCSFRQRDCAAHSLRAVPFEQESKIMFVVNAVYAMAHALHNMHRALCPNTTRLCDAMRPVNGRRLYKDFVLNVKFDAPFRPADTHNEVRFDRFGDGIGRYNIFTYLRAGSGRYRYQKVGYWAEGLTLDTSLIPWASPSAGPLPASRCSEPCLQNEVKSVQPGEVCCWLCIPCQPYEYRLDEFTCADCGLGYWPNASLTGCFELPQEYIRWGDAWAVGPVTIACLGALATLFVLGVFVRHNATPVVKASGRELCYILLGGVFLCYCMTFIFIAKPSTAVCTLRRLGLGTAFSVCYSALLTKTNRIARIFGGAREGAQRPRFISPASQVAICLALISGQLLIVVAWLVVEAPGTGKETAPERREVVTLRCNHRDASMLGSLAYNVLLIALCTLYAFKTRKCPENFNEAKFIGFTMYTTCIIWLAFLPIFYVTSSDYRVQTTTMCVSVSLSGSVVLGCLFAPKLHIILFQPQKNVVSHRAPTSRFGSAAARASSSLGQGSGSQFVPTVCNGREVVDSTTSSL
human mGlu2 receptors, sequence (Q14416 19-872): as above
mGluR3, sequence (Q14832 23-879): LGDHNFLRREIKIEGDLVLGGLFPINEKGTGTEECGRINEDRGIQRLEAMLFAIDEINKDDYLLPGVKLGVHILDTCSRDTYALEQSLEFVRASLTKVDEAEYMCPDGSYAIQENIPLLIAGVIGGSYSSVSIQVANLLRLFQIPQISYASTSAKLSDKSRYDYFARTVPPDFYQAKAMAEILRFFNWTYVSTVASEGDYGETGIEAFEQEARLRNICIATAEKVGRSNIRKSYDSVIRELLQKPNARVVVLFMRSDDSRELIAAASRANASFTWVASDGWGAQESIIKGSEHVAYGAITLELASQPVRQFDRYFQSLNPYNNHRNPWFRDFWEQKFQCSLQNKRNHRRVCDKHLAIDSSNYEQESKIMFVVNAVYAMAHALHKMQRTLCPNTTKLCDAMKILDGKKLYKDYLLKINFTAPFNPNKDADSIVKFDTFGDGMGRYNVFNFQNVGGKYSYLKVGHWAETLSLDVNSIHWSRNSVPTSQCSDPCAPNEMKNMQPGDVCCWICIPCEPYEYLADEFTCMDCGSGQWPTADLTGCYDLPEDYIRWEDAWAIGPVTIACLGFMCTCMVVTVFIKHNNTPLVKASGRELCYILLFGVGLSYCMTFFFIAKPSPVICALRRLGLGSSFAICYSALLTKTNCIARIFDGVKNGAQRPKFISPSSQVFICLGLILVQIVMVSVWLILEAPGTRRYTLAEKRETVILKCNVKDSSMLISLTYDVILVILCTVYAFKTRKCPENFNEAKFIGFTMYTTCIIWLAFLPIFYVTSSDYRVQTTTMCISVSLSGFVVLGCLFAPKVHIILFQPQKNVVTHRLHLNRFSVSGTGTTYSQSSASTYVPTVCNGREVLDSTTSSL
human mGlu3 receptors, sequence (Q14832 23-879): as above

`NC1(C(=O)O)CCc2cc(P(=O)(O)O)ccc21` (racemic) [APICA, (RS)-1-amino-5-phosphonoindan-1-carboxylic acid]: the “activity against Group I or Group III receptors” value in experiment [1] is on record as “no appreciable activity”. Further, the 50% inhibitory concentration (IC50) on mGluR2 and at mGluR3 was approximately 30 µM in each case.
Take `N[C@](CC1c2ccccc2Oc2ccccc21)(C(=O)O)[C@H]1C[C@@H]1C(=O)O` [LY341495, (2S)-2-amino-2-(1S,2S-2-carboxycycloprop-1-yl)-3-(xanth-9-yl)propanoic acid]: the “activity against mGlu7 and mGlu8” value in the experiment on mGlu7 and mGlu8 was “antagonist activity”. The “activity against KA, AMPA, and NMDA iGlu receptors” value in experiment [2] was “substantially inactive”.
Turning to `N[C@@]1(C(=O)O)CO[C@H]2[C@H](C(=O)O)[C@H]21` [LY379268, (−)-2-oxa-4-aminobicyclohexane-4,6-dicarboxylic acid], the EC50 at human mGlu2 receptors and at human mGlu3 receptors was less than 0.01 µM in each case.
As to `CC(=O)SC[C@@H](C)C(=O)N1CCC[C@H]1C(=O)N[C@@H](Cc1ccccc1)C(=O)O` [alacepril, 1-(D-3-acetylthio-2-methylpropanoyl)-L-prolyl-L-phenylalanine], the EC50 – broadly, the concentration at which the effect is half-maximal – in experiment [3] (setting [4]) is 13 µM. Besides, the “effect on neuronal differentiation” value in experiment [3] (agent alone) is reported as “promoted neuronal differentiation”.
`NCC(CC(=O)O)c1ccc(Cl)cc1` (stereo not shown) [baclofen]: the 50% effective concentration (EC50) in experiment [3] (setting [4]) came out at 3.2 µM.
For `CCOC(=O)[C@H](CCc1ccccc1)N[C@H]1CCc2ccccc2N(CC(=O)O)C1=O` [benazepril, 2-[4-(1-ethoxycarbonyl-3-phenyl-propyl)amino-5-oxo-6-azabicyclo[5.4.0]undeca-7,9,11-trien-6-yl]acetic acid], in experiment [3] (setting [5]), the half-maximal effective concentration (EC50) turned out to be 3.3 µM. Moreover, the “effect on neuronal differentiation” value in experiment [3] (agent alone) was “promoted neuronal differentiation”.
Take `CCOc1nc2cccc(C(=O)O)c2n1Cc1ccc(-c2ccccc2-c2nnn[nH]2)cc1` [candesartan, 2-ethoxy-3-[[4-[2-(2H-tetrazol-5-yl)phenyl]phenyl]methyl]-3H-benzoimidazole-4-carboxylic acid]: the concentration giving a half-maximal response (EC50) was approximately 0.84 µM in experiment [3] (setting [5]) and 2.2 µM in experiment [3] (setting [4]). The “effect on neuronal differentiation” value in experiment [3] (agent alone) is on record as “promoted neuronal differentiation”.
In the case of `C[C@H](CS)C(=O)N1CCC[C@H]1C(=O)O` [captopril, 1-[(2S)-3-mercapto-2-methylpropionyl]-1-proline], the concentration for a half-maximal effect (EC50) in experiment [3] (setting [4]) amounted to 3.8 µM. Moreover, in experiment [3] (agent alone), the “effect on neuronal differentiation” value is reported as “promoted neuronal differentiation”.
For `COc1cc2c(cc1OC)C(=O)C(CC1CCN(Cc3ccccc3)CC1)C2` (stereo not shown) [donepezil], the concentration for a half-maximal effect (EC50) in experiment [3] worked out at 2 µM.
For the molecule `CCOC(=O)[C@H](CCc1ccccc1)N[C@@H](C)C(=O)N1CCC[C@H]1C(=O)O` [enalapril, (S)-1-[N-[1-(ethoxycarbonyl)-3-phenylpropyl]-1-alanyl]-1-proline], the EC50 in experiment [3] (setting [4]) was determined as 0.5 µM. Besides, in experiment [3] (agent alone), the “effect on neuronal differentiation” value was “promoted neuronal differentiation”.
Regarding `CSc1ccc(C(=O)c2[nH]c(=O)[nH]c2C)cc1` [enoximone], the EC50 in experiment [3] (setting [4]) came to 6.8 µM.
On the same count and under the same terms, for `CC(C)C(=O)c1c(C(C)C)nn2ccccc12` [ibudilast] the value was 6.2 µM.
Take `NCCCC[C@H](N[C@@H](CCc1ccccc1)C(=O)O)C(=O)N1CCC[C@H]1C(=O)O` [lisinopril, (S)-1-(N(sup 2)-(1-carboxy-3-phenylpropyl)-L-lysyl)-L-proline]: in experiment [3] (setting [4]), the half-maximal effective concentration (EC50) came out at 9.1 µM. The “effect on neuronal differentiation” value in experiment [3] (agent alone) is recorded as “promoted neuronal differentiation”.
Regarding `CCCCc1nc(Cl)c(CO)n1Cc1ccc(-c2ccccc2-c2nnn[nH]2)cc1` [losartan, [2-butyl-5-chloro-3-[[4-[2-(2H-tetrazol-5-yl)phenyl]phenyl]methyl]-3H-imidazol-4-yl]methanol], the concentration for a half-maximal effect (EC50) in experiment [3] (setting [4]) was determined as 0.9 µM. Moreover, the “effect on neuronal differentiation” value in experiment [3] (agent alone) is “promoted neuronal differentiation”.
With `COc1ccc(C2CNC(=O)C2)cc1OC1CCCC1` (stereo not shown) [rolipram], the concentration giving a half-maximal response (EC50) in experiment [3] (setting [4]) came out at 2.3 µM.
In the case of `CCCc1nc2c(C)cc(-c3nc4ccccc4n3C)cc2n1Cc1ccc(-c2ccccc2C(=O)O)cc1` [telmisartan, 2-[4-[[4-methyl-6-(1-methylbenzoimidazol-2-yl)-2-propyl-benzoimidazol-1-yl]methyl]phenyl]benzoic acid], the results for the EC50 in experiment [3] (setting [5]) and in experiment [3] (setting [4]) were approximately 0.03 µM and 0.06 µM, respectively. In addition, in experiment [3] (agent alone), the “effect on neuronal differentiation” value is on record as “promoted neuronal differentiation”.
With `Cn1c(=O)c2[nH]cnc2n(C)c1=O` [theophylline], the EC50 in experiment [3] (setting [4]) amounted to 16.4 µM.
Take `CCOC(=O)C(CCc1ccccc1)NC(C)C(=O)N1C(C(=O)O)CC2CCCCC21` (stereo not shown) [trandolapril, 1-[2-[(1-ethoxycarbonyl-3-phenyl-propyl)amino]propanoyl]-2,3,3a,4,5,6,7,7a-octahydroindole-2-carboxylic acid]: the concentration giving a half-maximal response (EC50) in experiment [3] (setting [5]) was approximately 35 µM. For the same molecule, the “effect on neuronal differentiation” value in experiment [3] (agent alone) is reported as “promoted neuronal differentiation”.
In the case of `CCCc1nc(C)c2c(=O)[nH]c(-c3cc(S(=O)(=O)N4CCN(CC)CC4)ccc3OCC)nn12` [vardenafil], the EC50 in experiment [3] (setting [4]) was found to be 8.6 µM.
